Results from patent US11702409B2, “Pyrazolyl derivatives useful as anti-cancer agents” (NOVARTIS AG, priority 2019, dated 2023).

target: KRasG12C (M1-K169, biotinylated on the N-terminus) (Homo sapiens (Human), UniProt P01116, G12C); assay: Covalent competition assay (scintillation proximity assay, competition with radiolabeled covalent probe Compound B); format: binding; settings: in vitro KRASG12C activity; 10 nM KRasG12C:GDP, 25 nM radio-ligand and 475 nM unlabelled ligand, incubated 2 hours; read-out: Covalent Competition Assay IC50
Description: The cells were lysed by 4 passages through an Avestin Emulsiflex at about 20000 psi and insoluble debris removed by centrifugation and filtered through a 0.45 μm Durapore membrane (Millipore). […] The protein in the flow through was subjected to a final polishing step on a HiLoad 16/60 Superdex 200 prep grade size-exclusion column pre-equilibrated with SEC-buffer (20 mM HEPES pH 7.4, 150 mM NaCl, 5 mM MgCl2, 1 μM GDP).
A scintillation proximity assay (SPA) was used to determine the potency of the compounds. This assay measures the ability of the test compound to compete with the radiolabeled covalent probe for binding to and covalently modify KRASG12C.
A serial dilution of the compounds to be tested is mixed with a fixed concentration of the radiolabeled covalent probe before incubation with KRASG12C:GDP as described below.
The reaction was started by addition of KRasG12C (M1-K169, biotinylated on the N-terminus) to the compounds and incubated for 2 hours with continuous agitation allowing for full modification of KRasG12C with probe or test compounds. […] The assay buffer contained 20 mM Tris-HCl pH 7.5 (Invitrogen), 150 mM NaCl (Sigma Aldrich), 0.1 mM MgCl2 (Sigma Aldrich), and 0.01% Tween-20 (Sigma Aldrich).
Evaluation was carried out using assay data analysis software (such as the standard Novartis in-house Helios software application, Novartis Institutes for BioMedical Research, unpublished) using the methods described in Formenko et al., Robust Regression for high-throughput screening.
Evaluation can also be carried out using commercially available software which is designed to derive IC50 values using 4-parameter fits (e.g. GraphPad Prism, XL fit).

Row | SMILES | IC50 [µM]
1 | C=CC(=O)N1CC2(CC(n3nc(-c4ccc5cnccc5c4)c(-c4c(Cl)c(C)cc5[nH]ncc45)c3C)C2)C1 (single isomer, unassigned) [Example 25a] | 0.041
2 | C=CC(=O)N1CC2(CC(n3nc(-c4ccc5c(c4)CN(C)C(=O)C5)c(-c4c(Cl)c(C)cc5[nH]ncc45)c3C)C2)C1 (single isomer, unassigned) [Example 21a] | 0.06
3 | C=CC(=O)N1CC2(CC(n3nc(-c4ccc5c(cnn5CCN5CCOCC5)c4)c(-c4c(Cl)c(C)cc5[nH]ncc45)c3C)C2)C1 (single isomer, unassigned) [Example 17a] | 0.013
4 | C=CC(=O)N1CC2(CC(n3nc(-c4ccc5c(cnn5CCN5CCOCC5)c4)c(-c4c(Cl)c(C)cc5[nH]ncc45)c3C)C2)C1 (single isomer, unassigned) [Example 17b] | 14.6
5 | C=CC(=O)N1CC2(CC(n3nc(-c4ccc5ncnn5c4)c(-c4c(Cl)c(C)cc5[nH]ncc45)c3C)C2)C1 (single isomer, unassigned) [Example 23b] | 13.9
6 | C=CC(=O)N1CC2(CC(n3nc(-c4ccccc4)c(-c4c(Cl)c(C)cc5[nH]ncc45)c3C)C2)C1 (single isomer, unassigned) [Example 26a, 1-{6-[(4M)-4-(5-Chloro-6-methyl-1H-indazol-4-yl)-5-methyl-3-phenyl-1H-pyrazol-1-yl]-2-azaspiro[3.3]heptan-2-yl}prop-2-en-1-one] | 0.043
7 | C=CC(=O)N1CC2(CC(n3nc(-c4ccc(O)cc4F)c(-c4c(Cl)c(C)cc5[nH]ncc45)c3C)C2)C1 (single isomer, unassigned) [Example 58a] | 0.064
8 | C=CC(=O)N1CC2(CC(n3nc(-c4ccc(O)cc4)c(-c4c(Cl)c(C)cc5[nH]ncc45)c3C)C2)C1 (single isomer, unassigned) [Example 57a] | 0.033
9 | C=CC(=O)N1CC2(CC(n3nc(-c4cnc5c(cnn5C)c4)c(-c4c(Cl)c(C)cc5[nH]ncc45)c3C)C2)C1 (single isomer, unassigned) [Example 37a] | 0.112
10 | C=CC(=O)N1CC2(CC(n3nc(-c4ccc5nn(CCOCCOC)cc5c4)c(-c4c(Cl)c(C)cc5[nH]ncc45)c3C)C2)C1 (single isomer, unassigned) [Example 43b] | 2.9
11 | C=CC(=O)N1CC2(CC(n3nc(-c4ccc5c(c4)C(=O)OC5)c(-c4c(Cl)c(C)cc5[nH]ncc45)c3C)C2)C1 (single isomer, unassigned) [Example 54a] | 0.36
12 | C=CC(=O)N1CC2(CC(n3nc(C4=CN5CC(C)(C)N=C5C(F)=C4)c(-c4c(Cl)c(C)cc5[nH]ncc45)c3C)C2)C1 (single isomer, unassigned) [Example 73a] | 5.31
13 | C=CC(=O)N1CC2(CC(n3nc(-c4ccc5nn(CCOC)cc5c4)c(-c4c(Cl)c(C)cc5[nH]nc(N)c45)c3C)C2)C1 (single isomer, unassigned) [Example 69a, 1-(6-{(4M)-4-(3-Amino-5-chloro-6-methyl-1H-indazol-4-yl)-3-[2-(2-methoxyethyl)-2H-indazol-5-yl]-5-methyl-1H-pyrazol-1-yl}-2-azaspiro[3.3]heptan-2-yl)prop-2-en-1-one] | 0.009
14 | C=CC(=O)N1CC2(CC(n3nc(-c4ccc(C(=O)O)cc4)c(-c4c(Cl)c(C)cc5[nH]ncc45)c3C)C2)C1 (single isomer, unassigned) [Example 68b] | 1.9
15 | C=CC(=O)N1CC2(CC(n3nc(-c4cccnc4)c(-c4c(Cl)c(C)cc5[nH]ncc45)c3C)C2)C1 (single isomer, unassigned) [Example 27a] | 0.251
16 | C=CC(=O)N1CC2(CC(n3nc(-c4cccc(=O)n4C)c(-c4c(Cl)ccc5[nH]ncc45)c3C)C2)C1 (single isomer, unassigned) [Example 91a] | 5.3
17 | C=CC(=O)N1CC2(CC(n3nc(-c4ccc5nn(CCOC)cc5c4)c(-c4c(Cl)c(C)cc5[nH]ncc45)c3C)C2)C1 (single isomer, unassigned) [Example 41a, 1-(6-{(4M)-4-(5-Chloro-6-methyl-1H-indazol-4-yl)-3-[2-(2-methoxyethyl)-2H-indazol-5-yl]-5-methyl-1H-pyrazol-1-yl}-2-azaspiro[3.3]heptan-2-yl)prop-2-en-1-one] | 0.011
18 | C=CC(=O)N1CC2(CC(n3nc(-c4ccc(C#N)nc4)c(-c4c(Cl)c(C)cc5[nH]ncc45)c3C)C2)C1 (single isomer, unassigned) [Example 11a] | 0.973
19 | C=CC(=O)N1CC2(CC(n3nc(-c4ccncc4C)c(-c4c(Cl)c(C)cc5[nH]ncc45)c3C)C2)C1 (single isomer, unassigned) [Example 49b, 1-(6-(4-(5-chloro-6-methyl-1H-indazol-4-yl)-5-methyl-3-(3-methylpyridin-4-yl)-1H-pyrazol-1-yl)-2-azaspiro[3.3]heptan-2-yl)prop-2-en-1-one] | 5.38

Row | SMILES | IC50 [µM]
20 | C=CC(=O)N1CC2(CC(n3nc(-c4cccnc4)c(-c4c(Cl)c(C)cc5[nH]ncc45)c3C(F)F)C2)C1 (single isomer, unassigned) [Example 87b] | > 50
21 | C=CC(=O)N1CC2(CC(n3nc(-c4ccc5c(c4)CC(=O)N5C)c(-c4c(Cl)c(C)cc5[nH]ncc45)c3C)C2)C1 (single isomer, unassigned) [Example 24b] | > 50
22 | C=CC(=O)N1CC2(CC(n3nc(-c4cnc(OC)nc4)c(-c4c(Cl)ccc5[nH]ncc45)c3C)C2)C1 (single isomer, unassigned) [Example 90a] | 3.5
23 | C=CC(=O)N1CC2(CC(n3nc(-c4ccc5nn(CCOC)cc5c4)c(-c4c(Cl)c(C)cc5[nH]ncc45)c3C)C2)C1 (single isomer, unassigned) [Example 41b] | 0.941
24 | C=CC(=O)N1CC2(CC(n3nc(-c4ccc(C(=O)N(C)CCOC)cc4)c(-c4c(Cl)c(C)cc5[nH]ncc45)c3C)C2)C1 (single isomer, unassigned) [Example 66a, 4-(1-(2-acryloyl-2-azaspiro[3.3]heptan-6-yl)-4-(5-chloro-6-methyl-1H-indazol-4-yl)-5-methyl-1H-pyrazol-3-yl)-N-(2-methoxyethyl)-N-methylbenzamide] | 0.24
25 | C=CC(=O)N1CC2(CC(n3nc(-c4ccc(C(=O)NCCOC)nc4)c(-c4c(Cl)c(C)cc5[nH]ncc45)c3C)C2)C1 (single isomer, unassigned) [Example 64b] | 24.5
26 | C=CC(=O)N1CC2(CC(n3nc(-c4cccc5c4cnn5C)c(-c4c(Cl)c(C)cc5[nH]ncc45)c3C)C2)C1 (single isomer, unassigned) [Example 29a] | 0.22
27 | C=CC(=O)N1CC2(CC(n3nc(-c4ccc5c(c4)CN(C)C(=O)C5)c(-c4c(Cl)c(C)cc5[nH]ncc45)c3C)C2)C1 (single isomer, unassigned) [Example 21b] | 15
28 | C=CC(=O)N1CC2(CC(n3nc(-c4ccc5c(c4)CCN5CCOC)c(-c4c(Cl)c(C)cc5[nH]ncc45)c3C)C2)C1 (single isomer, unassigned) [Example 44b] | > 5
29 | C=CC(=O)N1CC2(CC(n3nc(-c4ccc(-n5nccc5N)nc4)c(-c4c(Cl)c(C)cc5[nH]ncc45)c3C)C2)C1 (single isomer, unassigned) [Example 7b] | > 5
30 | C=CC(=O)N1CC2(CC(n3nc(-c4cnn(S(=O)(=O)C5CC5)c4)c(-c4c(Cl)c(C)cc5[nH]ncc45)c3C)C2)C1 (single isomer, unassigned) [Example 36b] | > 50
31 | C=CC(=O)N1CC2(CC(n3nc(-c4cnn5c4CCC5)c(-c4c(Cl)c(C)cc5[nH]ncc45)c3C)C2)C1 (single isomer, unassigned) [Example 34b] | > 50
32 | C=CC(=O)N1CC2(CC(n3nc(-c4cnc5c(c4)ncn5C)c(-c4c(Cl)c(C)cc5[nH]ncc45)c3C)C2)C1 (single isomer, unassigned) [Example 38b] | > 50
33 | C=CC(=O)N1CC2(CC(n3nc(-c4ccc(N5CCN(C)C5=O)cc4)c(-c4c(Cl)c(C)cc5[nH]ncc45)c3C)C2)C1 (single isomer, unassigned) [Example 13a] | 0.018
34 | C=CC(=O)N1CC2(CC(n3nc(-c4ccc5[nH]ncc5c4)c(-c4c(Cl)c(C)cc5[nH]ncc45)c3C)C2)C1 (single isomer, unassigned) [Example 12a] | 0.024
35 | C=CC(=O)N1CC2(CC(n3nc(-c4ccc(OC)nc4)c(-c4c(Cl)c(C)cc5[nH]ncc45)c3C)C2)C1 [Example 78a, 1-(6-(4-(5-chloro-6-methyl-1H-indazol-4-yl)-3-(6-methoxypyridin-3-yl)-5-methyl-1H-pyrazol-1-yl)-2-azaspiro[3.3]heptan-2-yl)prop-2-en-1-one] | 0.216
36 | C=CC(=O)N1CC2(CC(n3nc(-c4cccc(=O)n4C)c(-c4c(Cl)ccc5[nH]ncc45)c3C)C2)C1 (single isomer, unassigned) [Example 91b] | 25.3
37 | C=CC(=O)N1CC2(CC(n3nc(-c4ccc(NCCOC)cc4F)c(-c4c(Cl)c(C)cc5[nH]ncc45)c3C)C2)C1 (single isomer, unassigned) [Example 61a, 1-(6-(4-(5-chloro-6-methyl-1H-indazol-4-yl)-3-(2-fluoro-4-((2-methoxyethyl)amino)phenyl)-5-methyl-1H-pyrazol-1-yl)-2-azaspiro[3.3]heptan-2-yl)prop-2-en-1-one] | 0.027
